The text below walks through data of US7829563B2, “Aminoamides as orexin antagonists” (Hoffmann-La Roche Inc., priority 2007, dated 2010).

Counter-ions that a name gives are not always drawn.

The target in this assay is T1, human orexin-2 (hOX2) receptors (Homo sapiens, UniProt O43614).
T1 construct: expressed in transfected cells
T1 sequence (O43614 1-444): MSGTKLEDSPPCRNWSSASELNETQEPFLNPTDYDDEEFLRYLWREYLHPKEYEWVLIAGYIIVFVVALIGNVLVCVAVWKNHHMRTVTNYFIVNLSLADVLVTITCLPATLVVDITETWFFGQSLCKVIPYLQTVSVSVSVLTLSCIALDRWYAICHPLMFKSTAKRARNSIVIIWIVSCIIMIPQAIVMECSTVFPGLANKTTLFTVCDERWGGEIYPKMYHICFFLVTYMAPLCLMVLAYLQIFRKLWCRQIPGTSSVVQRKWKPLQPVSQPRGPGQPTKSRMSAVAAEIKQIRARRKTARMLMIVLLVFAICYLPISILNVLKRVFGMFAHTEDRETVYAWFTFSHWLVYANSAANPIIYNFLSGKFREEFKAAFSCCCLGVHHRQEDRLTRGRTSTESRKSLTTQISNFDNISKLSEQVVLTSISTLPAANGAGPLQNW
The assay is described as follows: Intracellular Ca2+ mobilization assay (FLIPR), antagonism of orexin-A. Type of assay: cell-based. The conditions noted are these: CHO(dHFr−) cells stably expressing hOX2; orexin-A at EC80 as agonist; Kb=IC50/(1+[A]/EC50); read-out: Kb (μM) OX2R (human). The procedure, abridged:
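Fluo-4-loaded CHO(dHFr−) cells stably expressing hOX2 were pre-incubated 25 min at 37° C with antagonist (11 concentrations, 0.0001-10 μM), then stimulated with orexin-A at daily-determined EC80. Peak FLIPR fluorescence was fitted to the Hill equation for IC50, and Kb was derived as IC50/(1+[A]/EC50).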
Background: Calcium flux is commonly read through the fluorescence of an indicator in the cells.
Consider `CNC(=O)[C@H](N[C@@H](CCc1ccc(C(F)(F)F)cc1)c1ccc(OC)c(OC)c1)c1ccc(Cl)cc1` [Example 94, (R)-2-(4-Chloro-phenyl)-2-[(S)-1-(3,4-dimethoxy-phenyl)-3-(4-trifluoromethyl-phenyl)-propylamino]-N-methyl-acetamide], for which the Kb (as a rule, the affinity of an antagonist, worked out from how it opposes an agonist) is 0.0051 µM.

Regarding `CNC(=O)[C@H](N[C@@H](CCc1ccc(C(F)(F)F)cc1)c1ccc(OC)c(OC)c1)c1ccc(F)cc1` [Example 95, (R)-2-[(S)-1-(3,4-Dimethoxy-phenyl)-3-(4-trifluoromethyl-phenyl)-propylamino]-2-(4-fluoro-phenyl)-N-methyl-acetamide], the antagonist dissociation constant (Kb) stood at 0.0086 µM.

As to `CNC(=O)[C@H](N[C@@H](CCc1ccc(Cl)cc1)c1ccc2c(c1)CCO2)c1ccccc1` [Example 96, (R)-2-[(S)-3-(4-Chloro-phenyl)-1-(2,3-dihydro-benzofuran-5-yl)-propylamino]-N-methyl-2-phenyl-acetamide], the Kb came out at 0.0018 µM.

For the molecule `CNC(=O)[C@H](N[C@@H](CCc1ccc(Cl)cc1)c1ccc(OC)c(OC)c1Cl)c1ccccc1` [Example 98, (R)-2-[(S)-1-(2-Chloro-3,4-dimethoxy-phenyl)-3-(4-chloro-phenyl)-propylamino]-N-methyl-2-phenyl-acetamide], the Kb was found to be 0.0014 µM.

Consider `CNC(=O)[C@H](N[C@@H](CCc1ccc(C(F)(F)F)nc1)c1ccc2c(c1)CCCC2)c1ccc(F)cc1` [Example 102, (R)-2-(4-Fluoro-phenyl)-N-methyl-2-[(S)-1-(5,6,7,8-tetrahydro-naphthalen-2-yl)-3-(6-trifluoromethyl-pyridin-3-yl)-propylamino]-acetamide], for which the Kb stood at 0.0114 µM.

`CNC(=O)[C@H](N[C@@H](CCc1ccc(C(F)(F)F)nc1)c1cc(Cl)ccc1OC)c1ccc(F)cc1` [Example 104, (R)-2-[(S)-1-(5-Chloro-2-methoxy-phenyl)-3-(6-trifluoromethyl-pyridin-3-yl)-propylamino]-2-(4-fluoro-phenyl)-N-methyl-acetamide]: the antagonist equilibrium constant (Kb) is 0.0148 µM.

Consider `CNC(=O)[C@H](N[C@@H](CCc1ccc(C(F)(F)F)nc1)c1cc(C)ccc1F)c1ccc(F)cc1` [Example 107, (R)-2-[(S)-1-(2-Fluoro-5-methyl-phenyl)-3-(6-trifluoromethyl-pyridin-3-yl)-propylamino]-2-(4-fluoro-phenyl)-N-methyl-acetamide], for which the antagonist equilibrium constant (Kb) came out at 0.0124 µM.

For the molecule `CNC(=O)[C@H](N[C@@H](CCc1ccc(C(F)(F)F)cc1)c1ccc2c(c1)CCCO2)c1ccccc1` [Example 113, (R)-2-[(S)-1-Chroman-6-yl-3-(4-trifluoromethyl-phenyl)-propylamino]-N-methyl-2-phenyl-acetamide], the antagonist equilibrium constant (Kb) is 0.0089 µM.

With `CNC(=O)[C@H](N[C@@H](CCc1ccc(C(F)(F)F)cc1)c1ccc2c(c1)OCCN2C)c1ccccc1` [Example 115, (R)—N-Methyl-2-[(S)-1-(4-methyl-3,4-dihydro-2H-benzo[1,4]oxazin-7-yl)-3-(4-trifluoromethyl-phenyl)-propylamino]-2-phenyl-acetamide], the antagonist dissociation constant (Kb) is 0.0114 µM.

`CNC(=O)[C@H](N[C@@H](CCc1ccc(C(F)(F)F)cc1)c1sc(C)nc1C)c1ccc(F)cc1` [Example 116, (R)-2-[(S)-1-(2,4-Dimethyl-thiazol-5-yl)-3-(4-trifluoromethyl-phenyl)-propylamino]-2-(4-fluoro-phenyl)-N-methyl-acetamide]: the Kb was determined as 0.0061 µM.

For `CNC(=O)[C@H](N[C@@H](CCc1ccc(C(F)(F)F)cc1)c1cc(C)ccc1F)c1ccccc1` [Example 123, (R)-2-[(S)-1-(2-Fluoro-5-methyl-phenyl)-3-(4-trifluoromethyl-phenyl)-propylamino]-N-methyl-2-phenyl-acetamide], the antagonist dissociation constant (Kb) was 0.0129 µM.

On to `CNC(=O)[C@H](N[C@@H](CCc1ccc(C(F)(F)F)cc1)c1cc(C)ccc1F)c1ccc(F)cc1` [Example 124, (R)-2-[(S)-1-(2-Fluoro-5-methyl-phenyl)-3-(4-trifluoromethyl-phenyl)-propylamino]-2-(4-fluoro-phenyl)-N-methyl-acetamide], for which the Kb was 0.0123 µM.

For the molecule `CNC(=O)[C@H](N[C@@H](CCc1ccc(Cl)cc1)c1ccc(OC)c(OC)c1)c1ccccc1` [Example 163, (R)-2-[(S)-3-(4-Chloro-phenyl)-1-(3,4-dimethoxy-phenyl)-propylamino]-N-methyl-2-phenyl-acetamide], the Kb is 0.0011 µM.

`CNC(=O)[C@H](N[C@@H](CCc1ccc(C(F)(F)F)nc1)c1ccc(OC)c(OC)c1)c1ccccc1` [Example 200, (R)-2-[(S)-1-(3,4-Dimethoxy-phenyl)-3-(6-trifluoromethyl-pyridin-3-yl)-propylamino]-N-methyl-2-phenyl-acetamide hydrochloride]: the antagonist dissociation constant (Kb) came out at 0.0028 µM.

Consider `CNC(=O)[C@H](N[C@@H](CCc1ccc(C(F)(F)F)cc1)c1cccc(OC)c1)c1ccccc1` [Example 221, (R)-2-[(S)-1-(3-Methoxy-phenyl)-3-(4-trifluoromethyl-phenyl)-propylamino]-N-methyl-2-phenyl-acetamide hydrochloride], for which the antagonist equilibrium constant (Kb) is 0.0026 µM.

On to `CNC(=O)[C@@H](N[C@H](CCc1ccc(C(F)(F)F)cc1)c1cccc(OC)c1)c1ccccc1` [Example 222, (S)-2-[(R)-1-(3-Methoxy-phenyl)-3-(4-trifluoromethyl-phenyl)-propylamino]-N-methyl-2-phenyl-acetamide hydrochloride], for which the antagonist dissociation constant (Kb) is 0.0171 µM.

In the case of `CNC(=O)[C@H](N[C@@H](CCc1ccc(C)nc1)c1ccc(F)c(C)c1)c1ccccc1` [Example 262, (R)-2-[(S)-1-(4-Fluoro-3-methyl-phenyl)-3-(6-methyl-pyridin-3-yl)-propylamino]-N-methyl-2-phenyl-acetamide], the antagonist dissociation constant (Kb) amounted to 0.0173 µM.

As to `Cc1cc([C@H](CCc2ccc(C(F)(F)F)nc2)N[C@@H](C(N)=O)c2ccccc2)ccc1F` [Example 353, (R)-2-[(S)-1-(4-Fluoro-3-methyl-phenyl)-3-(6-trifluoromethyl-pyridin-3-yl)-propylamino]-2-phenyl-acetamide], the antagonist equilibrium constant (Kb) is 0.0057 µM.

Take `CNC(=O)[C@H](N[C@@H](CCc1ccc(C(F)(F)F)cc1)c1cccc(OC(F)F)c1)c1ccccc1` [Example 387, (R)-2-[(S)-1-(3-Difluoromethoxy-phenyl)-3-(4-trifluoromethyl-phenyl)-propylamino]-N-methyl-2-phenyl-acetamide]: the Kb is 0.008 µM.

Regarding `CNC(=O)[C@H](N[C@@H](CCc1ccc(C(F)(F)F)cc1)c1cccc(OC(F)F)c1)c1ccc(C)cc1` [Example 389, (R)-2-[(S)-1-(3-Difluoromethoxy-phenyl)-3-(4-trifluoromethyl-phenyl)-propylamino]-N-methyl-2-p-tolyl-acetamide], the Kb was found to be 0.0048 µM.

As to `CNC(=O)[C@H](N[C@@H](CCc1ccc(Cl)cc1)c1ccc(F)c(C)c1)c1ccccc1` [Example 392, (R)-2-[(S)-3-(4-Chloro-phenyl)-1-(4-fluoro-3-methyl-phenyl)-propylamino]-N-methyl-2-phenyl-acetamide], the Kb worked out at 0.0059 µM.

Take `CNC(=O)[C@H](N[C@@H](CCc1ccc(C)cc1)c1ccc(F)c(C)c1)c1ccccc1` [Example 397, (R)-2-[(S)-1-(4-Fluoro-3-methyl-phenyl)-3-p-tolyl-propylamino]-N-methyl-2-phenyl-acetamide]: the Kb amounted to 0.0042 µM.
